Test results taken from patent publication US10266560B2, “Bile acid analogs as FXR/TGR5 agonists and methods of use thereof” (Enanta Pharmaceuticals, Inc., priority 2014, dated 2019).
Read-outs that look alike come from different tables or passages of the source.

Target: Human FXR (NR1H4) (Homo sapiens (Human), UniProt Q96RI1)
Experiment: Human FXR (NR1H4) Assay (Gal4 promoter driven luciferase reporter transactivation in CHO cells)
Format: cell-based
Description: Assays Human FXR (NR1H4) Assay
Determination of a ligand mediated Gal4 promoter driven transactivation to quantify ligand binding mediated activation of FXR. FXR Reporter Assay kit purchased from Indigo Bioscience (Catalogue number: IB00601) to determine the potency and efficacy of compound developed by Enanta that can induce FXR activation. The principle application of this reporter assay system is to quantify functional activity of human FXR. The assay utilizes non-human mammalian cells, CHO (Chinese hamster ovary) cells engineered to express human NR1H4 protein (referred to as FXR). Reporter cells also incorporate the cDNA encoding beetle luciferase which catalyzes the substrates and yields photon emission. Luminescence intensity of the reaction is quantified using a plate-reading luminometer, Envision. Reporter Cells include the luciferase reporter gene functionally linked to an FXR responsive promoter. Thus, quantifying changes in luciferase expression in the treated reporter cells provides a sensitive surrogate measure of the changes in FXR activity. […] The assay is according to the manufacturer's instructions. In brief, the assay was performed in white, 96 well plates using final volume of 200 ul containing cells with different doses of compounds. Retrieve Reporter Cells from −80° C. storage. Perform a rapid thaw of the frozen cells by transferring a 10 ml volume of 37° C. cell recovery medium into the tube of frozen cells. Recap the tube of Reporter Cells and immediately place it in a 37° C. water bath for 5-10 minutes. Retrieve the tube of Reporter Cell Suspension from the water bath. Sanitize the outside surface of the tube with a 70% alcohol swab, and then transfer it into the cell culture hood. Dispense 100 μl of cell suspension into each well of the 96-well Assay Plate. Transfer the plate into 37° C. incubator, allowing the cells adherent to the bottom of the well. Dilute compounds in Dilution Plate (DP), and administrate to cells at Assay Plate (AP). DMSO content of the samples was kept at 0.2%. Cells were incubated for additional 22 hours before luciferase activities were measured. Thirty minutes before intending to quantify FXR activity, remove Detection Substrate and Detection Buffer from the refrigerator and place them in a low-light area so that they may equilibrate to room temperature. Remove the plate's lid and discard all media contents by ejecting it into an appropriate waste container. Gently tap the inverted plate onto a clean absorbent paper towel to remove residual droplets. Cells will remain tightly adhered to well bottoms. Add 100 μl of luciferase detection reagent to each well of the assay plate. Allow the assay plate to rest at room temperature for at least 5 minutes following the addition of LDR. Set the instrument (Envision) to perform a single 5 second “plate shake” prior to reading the first assay well. Read time may be 0.5 second (500 mSec) per well.

[1] = FXR agonistic potency range; CHO reporter cells expressing human NR1H4, 22 hours incubation; read-out: EC50

Sequence of Human FXR (NR1H4) (Q96RI1 whole entry, the tested form may be a part): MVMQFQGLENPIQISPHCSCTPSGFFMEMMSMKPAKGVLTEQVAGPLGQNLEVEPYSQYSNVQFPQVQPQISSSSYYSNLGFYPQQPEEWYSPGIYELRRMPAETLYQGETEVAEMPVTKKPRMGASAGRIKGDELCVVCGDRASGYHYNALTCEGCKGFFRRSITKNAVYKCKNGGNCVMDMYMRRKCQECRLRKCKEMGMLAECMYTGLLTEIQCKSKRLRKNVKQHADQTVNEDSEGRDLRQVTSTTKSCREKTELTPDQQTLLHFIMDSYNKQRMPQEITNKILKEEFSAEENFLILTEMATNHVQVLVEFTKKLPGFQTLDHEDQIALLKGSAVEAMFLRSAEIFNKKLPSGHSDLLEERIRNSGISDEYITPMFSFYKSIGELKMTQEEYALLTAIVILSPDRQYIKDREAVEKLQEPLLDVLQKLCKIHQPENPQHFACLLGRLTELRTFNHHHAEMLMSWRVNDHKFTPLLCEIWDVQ

Row | SMILES | Emax (CHO, read-out: Efficacy (%)) [%] | EC50 [1] [nM] | Emax (CHO; read-out: Efficacy (%)) [%] | EC50 (read-out: EC50) [nM]
1 | CC[C@@H]1C2C[C@H](O)CCC2(C)[C@H]2CCC3(C)C([C@H](C)CCC(=O)NS(=O)(=O)C4CCCCC4)CC[C@H]3[C@@H]2[C@@H]1O (some centres unmarked) [Example 468] | 480 | < 100 | – | –
2 | CC[C@@H]1C2C[C@H](O)CCC2(C)[C@H]2CCC3(C)C([C@H](C)CCC(=O)NS(=O)(=O)c4cnccn4)CC[C@H]3[C@@H]2[C@@H]1O (some centres unmarked) [Example 469] | – | – | 447 | 1000 to 10000
3 | CC[C@@H]1C2C[C@H](O)CCC2(C)[C@H]2CCC3(C)C([C@H](C)CCC(=O)NS(=O)(=O)c4cccc5ncccc45)CC[C@H]3[C@@H]2[C@@H]1O (some centres unmarked) [Example 470] | – | – | 439 | 100 to 1000
4 | CC[C@@H]1C2C[C@H](O)CCC2(C)[C@H]2CCC3(C)C([C@H](C)CCC(=O)NS(=O)(=O)c4cccc(OC(F)(F)F)c4)CC[C@H]3[C@@H]2[C@@H]1O (some centres unmarked) [Example 471] | 467 | < 100 | – | –
5 | CC[C@@H]1C2C[C@H](O)CCC2(C)[C@H]2CCC3(C)C([C@H](C)CCC(=O)NS(=O)(=O)c4ccc5ccccc5c4)CC[C@H]3[C@@H]2[C@@H]1O (some centres unmarked) [Example 472] | 580 | < 100 | – | –
6 | CC[C@@H]1C2C[C@H](O)CCC2(C)[C@H]2CCC3(C)C([C@H](C)CCC(=O)NS(=O)(=O)c4ccc(OC(F)(F)F)cc4)CC[C@H]3[C@@H]2[C@@H]1O (some centres unmarked) [Example 473] | 606 | < 100 | – | –
7 | CC[C@@H]1C2C[C@H](O)CCC2(C)[C@H]2CCC3(C)C([C@H](C)CCC(=O)NS(=O)(=O)c4nccs4)CC[C@H]3[C@@H]2[C@@H]1O (some centres unmarked) [Example 474] | – | – | 463 | 1000 to 10000
8 | CC[C@@H]1C2C[C@H](O)CCC2(C)[C@H]2CCC3(C)C([C@H](C)CCC(=O)NS(=O)(=O)c4ccc(C(F)(F)F)cc4)CC[C@H]3[C@@H]2[C@@H]1O (some centres unmarked) [Example 475] | 590 | < 100 | – | –
9 | CC[C@@H]1C2C[C@H](O)CCC2(C)[C@H]2CCC3(C)C([C@H](C)CCC(=O)NS(=O)(=O)c4ccc(OC)c(F)c4)CC[C@H]3[C@@H]2[C@@H]1O (some centres unmarked) [Example 476] | 593 | < 100 | – | –
10 | CC[C@@H]1C2C[C@H](O)CCC2(C)[C@H]2CCC3(C)C([C@H](C)CCC(=O)NS(=O)(=O)c4cccc(OC)c4)CC[C@H]3[C@@H]2[C@@H]1O (some centres unmarked) [Example 477] | 596 | < 100 | – | –
11 | CC[C@@H]1C2C[C@H](O)CCC2(C)[C@H]2CCC3(C)C([C@H](C)CCC(=O)NS(=O)(=O)c4ccc(OC)c(OC)c4)CC[C@H]3[C@@H]2[C@@H]1O (some centres unmarked) [Example 478] | – | – | 589 | 100 to 1000
12 | CC[C@@H]1C2C[C@H](O)CCC2(C)[C@H]2CCC3(C)C([C@H](C)CCC(=O)NS(=O)(=O)c4cccc(Cl)c4)CC[C@H]3[C@@H]2[C@@H]1O (some centres unmarked) [Example 479] | 572 | < 100 | – | –
13 | CC[C@@H]1C2C[C@H](O)CCC2(C)[C@H]2CCC3(C)C([C@H](C)CCC(=O)NS(=O)(=O)c4ccc(Cl)cc4)CC[C@H]3[C@@H]2[C@@H]1O (some centres unmarked) [Example 480] | 346 | < 100 | – | –
14 | CC[C@@H]1C2C[C@H](O)CCC2(C)[C@H]2CCC3(C)C([C@H](C)CCC(=O)NS(=O)(=O)c4ccc5c(c4)OCO5)CC[C@H]3[C@@H]2[C@@H]1O (some centres unmarked) [Example 481] | 359 | < 100 | – | –
15 | CC[C@@H]1C2C[C@H](O)CCC2(C)[C@H]2CCC3(C)C([C@H](C)CCC(=O)NS(=O)(=O)C4CCCC4)CC[C@H]3[C@@H]2[C@@H]1O (some centres unmarked) [Example 482] | 342 | < 100 | – | –
16 | CC[C@@H]1C2C[C@H](O)CCC2(C)[C@H]2CCC3(C)C([C@H](C)CCC(=O)NS(=O)(=O)c4cccc5ccccc45)CC[C@H]3[C@@H]2[C@@H]1O (some centres unmarked) [Example 483] | 308 | < 100 | – | –
17 | CC[C@@H]1C2C[C@H](O)CCC2(C)[C@H]2CCC3(C)C([C@H](C)CCC(=O)NS(=O)(=O)c4ccc(C(C)(C)C)cc4)CC[C@H]3[C@@H]2[C@@H]1O (some centres unmarked) [Example 484] | 349 | < 100 | – | –
18 | CC[C@H]1[C@@H](O)[C@@H]2[C@H](CC[C@]3(C)[C@@H]([C@H](C)C[C@@H](C)C(=O)NS(=O)(=O)c4ccc(C(C)(C)C)cc4)CC[C@@H]23)[C@@]2(C)CC[C@@H](O)C[C@@H]12 [Example 485] | – | – | 185 | 100 to 1000
19 | CC[C@H]1[C@@H](O)[C@@H]2[C@H](CC[C@]3(C)[C@@H]([C@H](C)C[C@@H](C)C(=O)NS(=O)(=O)C4CC4)CC[C@@H]23)[C@@]2(C)CC[C@@H](O)C[C@@H]12 [Example 486] | – | – | 387 | 100 to 1000
20 | CC[C@H]1[C@@H](O)[C@@H]2[C@H](CC[C@]3(C)[C@@H]([C@H](C)C[C@@H](C)C(=O)NS(=O)(=O)c4ccc(OC(F)(F)F)cc4)CC[C@@H]23)[C@@]2(C)CC[C@@H](O)C[C@@H]12 [Example 487] | 287 | < 100 | – | –
21 | CC[C@H]1[C@@H](O)[C@@H]2[C@H](CC[C@]3(C)[C@@H]([C@H](C)C[C@H](C)C(=O)NS(=O)(=O)c4ccc(C(C)(C)C)cc4)CC[C@@H]23)[C@@]2(C)CC[C@@H](O)C[C@@H]12 [Example 488] | – | – | 132 | 100 to 1000
22 | CC[C@H]1[C@@H](O)[C@@H]2[C@H](CC[C@]3(C)[C@@H]([C@H](C)CCC(=O)N(C)S(=O)(=O)c4ccccc4)CC[C@@H]23)[C@@]2(C)CC[C@@H](O)C[C@@H]12 [Example 489] | – | – | 231 | 1000 to 10000
23 | CC[C@H]1[C@@H](O)[C@@H]2[C@H](CC[C@]3(C)[C@@H]([C@H](C)CCCC(=O)NS(=O)(=O)C4CC4)CC[C@@H]23)[C@@]2(C)CC[C@@H](O)C[C@@H]12 [Example 490] | – | – | 223 | 100 to 1000
24 | CC[C@H]1[C@@H](O)[C@@H]2[C@H](CC[C@]3(C)[C@@H]([C@H](C)CCCC(=O)NS(=O)(=O)c4ccc(C(C)(C)C)cc4)CC[C@@H]23)[C@@]2(C)CC[C@@H](O)C[C@@H]12 [Example 491] | 182 | < 100 | – | –
25 | CC[C@H]1[C@@H](O)[C@@H]2[C@H](CC[C@]3(C)[C@@H]([C@H](C)CCCC(=O)NS(=O)(=O)C4(C)CC4)CC[C@@H]23)[C@@]2(C)CC[C@@H](O)C[C@@H]12 [Example 492] | – | – | 226 | 100 to 1000
